Source: patent US20090298813A1, “USE OF NEUROPROTECTIVE COMPOUNDS IN OBTAINING MEDICAMENTS INTENDED FOR THE TREATMENT OF NEURODEGENERATING DISEASES” (LES LABORATOIRES SERVIER, priority 2007, published 2009)

Assays:
glial cells = assay: Protection from apoptosis caused in vitro in cultures of glial cells (OGD followed by reperfusion); assay type: cell-based, Sprague Dawley rats; details: 10 μM throughout OGD (3 h) and reperfusion (18 h); relative to control cultures subjected to OGD and reperfusion
Experimental: A study was carried out to determine if the compounds of the invention protect cultures of glial cells from the apoptosis brought about by oxygen and glucose deprivation (OGD) followed by reperfusion.
Glial cells are isolated from the brains of newborn Sprague Dawley rats and cultured. They are subjected to OGD for 3 hours by being placed in a glucose-free medium under anaerobic conditions in an incubator (5% CO2, 95% N2).
Reperfusion is carried out by returning the cultures for 18 hours to the normal medium [Dulbecco's modified Eagle […] (DMEM)], to which 10% fetal calf serum, 2 mM glutamine and 50 μg/ml of gentamicin have been added.
At the end of the OGD period, the adenosine triphosphate (ATP) content of the cultures is measured in order to assess the degree of ischaemia, using the BIOLUMINESCENT kit (luciferase luminescence).
The degree of apoptosis is quantified by counting the astrocyte nuclei labelled with the DNA-specific HOECHST 33258 fluorescent dye.
The compounds of the invention are added to the medium at a concentration of 10 μM throughout the OGD and reperfusion period.
The results are expressed as the percentage reduction in cell death relative to control cultures subjected to ischaemia by means of OGD and reperfusion.

newborn mice = assay: Protection from neurodegeneration caused by ibotenate in newborn mice; assay type: in vivo, mouse; details: 20 mg/kg i.p.; for Reduction in the size of lesions relative to the controls, cortex / Reduction in the size of lesions relative to the controls, white matter: simultaneous injection at 0 h
Experimental: Ibotenate, an agonist of N-methyl-D-aspartate (NMDA) receptors, when administered by the intracerebral route to the newborn mouse, brings about lesions of excitotoxic origin in the neocortex and the underlying white matter.
The ibotenate injection is performed in newborn mice aged 5 days (P5). The compounds of the invention are administered by the i.p. route at a dose of 20 mg/kg [either simultaneously] (P5), [or 8, 24 or 48 hours after induction of the lesions]. […] Cell markers were applied to the brain slices of animals sacrificed at various times after administration of ibotenate and the compound of the invention: (1) cleaved caspase-3, an apoptosis marker; (2) isolectin, a microglial activation marker; (3) glial fibrillary acidic protein (GFAP), a marker of astrogliosis.

mouse striatum = assay: Glial reaction in a 6-OHDA model of Parkinson's disease in the mouse; assay type: in vivo; details: single i.p. injection of 20 mg/kg 10 minutes after 6-OHDA; assessed at 7 days; relative to control group (6-OHDA and solvent)
Experimental: Unilateral injection of 6-OHDA into the mouse striatum using a micro-syringe (0.5 μl of a solution containing 8 μg/μl) causes, from the 3rd day, degeneration of the TH-positive neurons of the striatum, which is accompanied, from the 7th day, by neuronal loss also in the substantia nigra, in accordance with that which is observed. in Parkinson's disease in humans.
The compounds of the invention are administered by the intraperitoneal route in a single injection of 20 mg/kg 10 minutes after the intracerebral injection of 6-OHDA. One group of mice is sacrificed at 3 days, the other at 7 days.

[1] = test system: dopaminergic neurons of primary rat mesencephalic cultures; assay: Neuroprotective effects and stimulation of the catecholaminergic phenotype in vitro (spontaneous death of dopaminergic neurons); assay type: cell-based
Experimental: The study is carried out in an in vitro model of primary rat mesencephalic cultures, wherein death of the dopaminergic neurons develops spontaneously and selectively when the cells mature. The culture conditions have been defined in detail in various publications (Douhou et al., J. of Neurochemistry, (2001), 78, 163-174). The culture media are changed daily and, under these conditions, the dopaminergic neurons, but not the other neurons such as GABA-ergic neurons, degenerate spontaneously. Natural trophic factors of the body such as GDNF (glial cell derived neurotrophic factor) have shown a protective effect on the dopaminergic neurons in this model.
The effects of Examples 1 and 12 were tested at 3 concentrations. The effect is analysed by measuring the rate of tritiated dopamine uptake and the number of surviving neurons by labelling the tyrosine hydroxylase with a fluorescent antibody.

[2] = deferred injection 8 h after ibotenate, sacrifice at 120 h
[3] = deferred injection 24 h after ibotenate, sacrifice at 120 h
[4] = deferred injection 48 h after ibotenate, sacrifice at 120 h

Q: Which results are given for `Cl.O=C1NN2c3ccc(Cl)cc3C3CCN4CCCC1C4C32` (single isomer, unassigned; (+)) [Example 1, (+) (2RS,7SR),(3RS,16RS)-10-Chloro-15-oxo-2,7,14,15-tetrahydro-14-aza-20,21-dinoreburnameninium chloride]?
A: Reduction in cell death, % reduction (glial cells): 70%; Reparatory effect: reduction in the size of lesions relative to the controls, cortex (newborn mice; [2]): 57%; Reparatory effect: reduction in the size of lesions relative to the controls, white matter (newborn mice; [2]): 59%; Reparatory effect: reduction in the size of lesions relative to the controls, cortex (newborn mice; [3]): 39%; Reparatory effect: reduction in the size of lesions relative to the controls, white matter (newborn mice; [3]): 61%; Reparatory effect: reduction in the size of lesions relative to the controls, cortex (newborn mice; [4]): 10%; Reparatory effect: reduction in the size of lesions relative to the controls, white matter (newborn mice; [4]): 26%; Reduction in the intensity of markers relative to the controls, GFAP (astrogliosis) (newborn mice; sacrifice at 8 h): 24%; Reduction in the intensity of markers relative to the controls, Isolectin (microglial activation) (newborn mice; sacrifice at 8 h): 39%; Reduction in the intensity of markers relative to the controls, Cleaved caspase-3 (apoptosis) (newborn mice; sacrifice at 24 h): 66%; Reduction in the intensity of markers relative to the controls, Isolectin (microglial activation) (newborn mice; sacrifice at 24 h): 39%; Reduction in the intensity of markers relative to the controls, Cleaved caspase-3 (apoptosis) (newborn mice; sacrifice at 48 h): 71%; Reduction in the intensity of markers relative to the controls, GFAP (astrogliosis) (newborn mice; sacrifice at 48 h): 25%; Reduction in the intensity of markers relative to the controls, Isolectin (microglial activation) (newborn mice; sacrifice at 48 h): 35%; Reduction in the intensity of markers relative to the controls, GFAP (astrogliosis) (newborn mice; sacrifice at 72 h): 31%; Reduction in the intensity of markers relative to the controls, Isolectin (microglial activation) (newborn mice; sacrifice at 72 h): 35%; Reduction in the intensity of markers relative to the controls, GFAP (astrogliosis) (newborn mice; sacrifice at 120 h): 39%; Reduction in the intensity of markers relative to the controls, Isolectin (microglial activation) (newborn mice; sacrifice at 120 h): 41%; Reduction in the size of lesions relative to the controls, cortex (newborn mice; sacrifice at 8 h): 39%; Reduction in the size of lesions relative to the controls, white matter (newborn mice; sacrifice at 8 h): 66%; Reduction in the size of lesions relative to the controls, cortex (newborn mice; sacrifice at 24 h): 40%; Reduction in the size of lesions relative to the controls, white matter (newborn mice; sacrifice at 24 h): 61%; Reduction in the size of lesions relative to the controls, cortex (newborn mice; sacrifice at 48 h): 44%; Reduction in the size of lesions relative to the controls, white matter (newborn mice; sacrifice at 48 h): 52%; Reduction in the size of lesions relative to the controls, cortex (newborn mice; sacrifice at 72 h): 52%; Reduction in the size of lesions relative to the controls, white matter (newborn mice; sacrifice at 72 h): 56%; Reduction in the size of lesions relative to the controls, cortex (newborn mice; sacrifice at 120 h): 46%; Reduction in the size of lesions relative to the controls, white matter (newborn mice; sacrifice at 120 h): 62%; reduction of the area occupied by the astrocytes (GFAP) in the striatum (mouse striatum): 13%; cell survival (number of surviving neurons, tyrosine hydroxylase labelling) [1]: significantly increase; rate of tritiated dopamine uptake [1]: significantly increase
